Earlier results in patent US6894093B2, “Materials free of endorine disruptive chemicals” (priority 2001, dated 2005).
Where two headings read alike, the source gives them in different places.

How the values were obtained:
[1] = set-up: key: Estrogenic (EA); Carcinogenic (CA) Activity; details: plastic monomers

In the case of `CC(C)(c1ccc(O)cc1)c1ccc(O)cc1` [Bisphenol A], the “Monomer Exhibits Estrogenic (EA) or Carcinogenic (CA) Activity” value [1] is listed as “EA”, the “endocrine disruptive activity” value (estrogen receptor (ER); statement in background text) is listed as “exhibit endocrine disruptive activity” and the “estrogenic activity” value (estrogen receptor (ER); statement in background text) is listed as “deleterious estrogenic activity”.

In the case of `COc1ccc(O)c(C(C)(C)C)c1` [Butylated hydroxyanisole (BHA), Butylated hydroxyanisole], the ADI is given as 0 to 0.5 mg/kg.

For `CCCCC(CC)COC(=O)c1ccccc1C(=O)OCC(CC)CCCC` (stereo not shown) [DEHP, di(2-ethylhexyl) phthalate], the “estrogenic activity” value (estrogen receptor (ER); statement in background text) is given as “estrogen-mimicking”.

For `CCCOC(=O)c1cc(O)c(O)c(O)c1` [Propyl gallate], the ADI is listed as 0 to 2.5 mg/kg.

For `CC(C)(C)c1cc(O)ccc1O` [Tert-Butylhydroquinone (TBHQ), Tert-Butylhydroquinone], the ADI is listed as 0 to 0.2 mg/kg.

In the case of `C=CCl` [Vinylchloride], the “Monomer Exhibits Estrogenic (EA) or Carcinogenic (CA) Activity” value [1] is given as “CA”.

For “(di)Butyl hydroxy toluene [(di)Butyl hydroxy toluene (BHT)]”, the “Predicted Estrogenic Activity” value (estrogen receptor (ER)) is given as “Yes” and the “endocrine disruptive activity” value (estrogen receptor (ER)) is given as “exhibits endocrine disruptive activity”.
